The subject of one assay is K. pneumoniae ATCC 13883. The experiment in a line: Broth dilution MIC, K. pneumoniae ATCC 13883. The class given is cell-based. As to conditions: for MIC: Klebsiella pneumoniae. (Broth dilution looks for growth in wells or tubes with falling amounts of substance.)
For assay [1], the system named is S. aureus ATCC 33591 (MRSA). The experiment in a line: Broth dilution MIC, S. aureus ATCC 33591. Type of assay: cell-based. As to conditions: for MIC: Staphylococcus aureus.
Assay [2] deals with S. pneumoniae ATCC 700674 (PRSP). The experiment in a line: Broth dilution MIC, S. pneumoniae ATCC 700674. As to conditions: for MIC: Streptococcus pneumoniae. Type of assay: cell-based.
The test system of the next assay is E. coli ECM 1694. Briefly: Broth dilution MIC, E. coli ECM 1694. Type of assay: cell-based. As to conditions: for MIC: Escherichia coli.
Another assay has as its system E. coli ATCC 25922. Briefly: Broth dilution MIC, E. coli ATCC 25922. Type of assay: cell-based. As to conditions: for MIC: Escherichia coli.
The subject of assay [3] is E. faecalis ATCC 29212 (VRE). Briefly: Broth dilution MIC, E. faecalis ATCC 29212. The class given is cell-based.
Assay [4] has as its system S. pneumoniae ATCC 6301 (PSSP). Briefly: Broth dilution MIC, S. pneumoniae ATCC 6301. As to conditions: for MIC: Streptococcus pneumoniae. Type of assay: cell-based.
The test system of a further assay is M. smegmatis (mc2155). The experiment in a line: Disk diffusion assay, zone of inhibition, M. smegmatis. The class given is cell-based. As to conditions: disk diffusion zone of inhibition. For orientation: In agar diffusion tests the substance spreads into inoculated agar from a disc or well.
The subject of the next assay is P. aeruginosa ATCC 9027. Briefly: Broth dilution MIC, P. aeruginosa ATCC 9027. Type of assay: cell-based. As to conditions: for MIC: Pseudomonas aeruginosa.
Assay [5] has as its system S. aureus ATCC 29213 (MSSA). The experiment in a line: Broth dilution MIC, S. aureus ATCC 29213. As to conditions: for MIC: Staphylococcus aureus. The class given is cell-based.
For the next assay, the system named is E. faecium CT-26. Briefly: Broth dilution MIC, E. faecium CT-26. Type of assay: cell-based. As to conditions: for MIC: Enterococcus faecium.
Another assay relates to MRSA. Briefly: Disk diffusion assay, zone of inhibition, MRSA. As to conditions: disk diffusion zone of inhibition. Type of assay: cell-based, Staphylococcus aureus.
In another assay the test system is S. aureus BAA-39 (MDR). Briefly: Broth dilution MIC, S. aureus BAA-39. As to conditions: for MIC: Staphylococcus aureus, BAA39. The class given is cell-based.
In a further assay the test system is K. pneumoniae ATCC 51503. Briefly: Broth dilution MIC, K. pneumoniae ATCC 51503. Type of assay: cell-based. As to conditions: for MIC: Klebsiella pneumoniae.
For assay [6], the system named is E. faecium ATCC 700221 (VRE). Briefly: Broth dilution MIC, E. faecium ATCC 700221. Type of assay: cell-based.
In another assay the test system is C. albicans ATCC 14053. Briefly: Broth dilution MIC, C. albicans ATCC 14053. Type of assay: cell-based. As to conditions: Candida albicans, ATCC14053; Table 1; range 64 down to 0.12 μg/ml. The procedure: In vitro Anti-bacterial & Anti-fungal Activity Assay: All test compounds were prepared as 6.4 mg/ml stock solutions in DMSO and further diluted according to the NCCLS M7-A6 (Page 5) document with sterile water or appropriate diluent. A working stock of 256 μg/ml was used to do 1:2 serial dilutions in 96-well plates. […] The inoculums were prepared by making a direct sterile water suspension of isolated colonies from 18 to 24 hr agar plates for all organisms (Mueller Hinton, Blood Agar or SDA plates). Each bacterial suspension was adjusted to read between 0.09 and 0.11 absorbance at 620 nm. […] These were further diluted 1/100 in appropriate broth for inoculating the 96-well plates. The C. albicans suspension was adjusted to read between 70 and 75% Transmittance at 530 nm and then diluted 1/500 in RPMI+MOPS broth. All aerobic bacterial and fungal plates were incubated for 18 hrs. at 35° C. […] Plates were read using a Beckman Automated Plate Reader at 650 nm. Readings were confirmed by visual examination of plates. (See Table 1, Table 2, Table 3, and Table 4). […] It is important to note that positive results against C. albicans are often indicative of broad spectrum antifungal activity, while negative results are not necessarily conclusory of a lack of activity against other fungus.

[7] abbreviates: Table 4, broth dilution MIC according to CLSI standards (NAEJA).

Values after ≈ are worked out from the molar mass of the structure shown. Where two headings read alike, the source gives them in different places. Bounds are passed on as bounds.

By MIC is commonly meant the lowest concentration found to suppress growth. As for `CN1CCC(Nc2ccc(-c3cc4ccc(C5=NCCN5)cc4[nH]3)cc2)CC1` [SKI-7], the MIC in the assay on K. pneumoniae ATCC 13883 (ATCC13883, Table 1, range 64 down to 0.12 μg/ml, read-out: MIC K. pneumoniae ATCC 13883) was over 64 µg/mL; in the assay on K. pneumoniae ATCC 13883 (ATCC13883, Table 2, broth dilution MIC in ug/ml, read-out: MIC K pneumonia ATCC 13883), 64 µg/mL (≈ 171 µM); in assay [1] (Table 1, range 64 down to 0.12 μg/ml, read-out: MIC S. aureus ATCC 33591) it was 2 µg/mL (≈ 5.35 µM); in assay [1] (Table 2, broth dilution MIC in ug/ml, read-out: MIC S aureus ATCC 33591 MRSA), 2 µg/mL (≈ 5.35 µM); in assay [2] (Table 1, range 64 down to 0.12 μg/ml, read-out: MIC S. pneumoniae ATCC 700674), 32 µg/mL (≈ 85.7 µM); in assay [2] (Table 2, broth dilution MIC in ug/ml, read-out: MIC S pneumonia ATCC 700674 PRSP), 32 µg/mL (≈ 85.7 µM). Further, the MIC was determined as 0.25 µg/mL (≈ 0.669 µM) with E. coli ECM 1694 (ECM1694, Table 1, range 64 down to 0.12 μg/ml, read-out: MIC E. coli ECM 1694); 0.25 µg/mL (≈ 0.669 µM) in the assay on E. coli ECM 1694 (ECM1694, Table 2, broth dilution MIC in ug/ml, read-out: MIC E. coli ECM 1693); 2 µg/mL (≈ 5.35 µM) with E. coli ATCC 25922 (ATCC 25921 / ATCC 25922, Table 2, broth dilution MIC in ug/ml, read-out: MIC E. coli ATCC 25921); 2 µg/mL (≈ 5.35 µM) in the assay on E. coli ATCC 25922 (ATCC25922, Table 1, range 64 down to 0.12 μg/ml, read-out: MIC E. coli ATCC 25922); 16 µg/mL (≈ 42.8 µM) in assay [3] (Enterococcus faecalis, Table 1, range 64 down to 0.12 μg/ml, read-out: MIC E. faecalis ATCC 29212); 16 µg/mL (≈ 42.8 µM) in assay [3] (Table 2, broth dilution MIC in ug/ml, read-out: MIC E faecalis ATCC 29212 VRE). Also, the MIC was 4 µg/mL (≈ 10.7 µM) in [4] (ATCC6301, Table 1, range 64 down to 0.12 μg/ml, read-out: MIC S. pneumoniae ATCC 6301); 4 µg/mL (≈ 10.7 µM) in [4] (ATCC6301, Table 2, broth dilution MIC in ug/ml, read-out: MIC S pneumonia ATCC 6301 PSSP); 64 µg/mL (≈ 171 µM) in the assay on P. aeruginosa ATCC 9027 (ATCC 9026 / ATCC 9027, Table 2, broth dilution MIC in ug/ml, read-out: MIC P aeruginosa ATCC 9026); over 64 µg/mL in the assay with P. aeruginosa ATCC 9027 (ATCC9027, Table 1, range 64 down to 0.12 μg/ml, read-out: MIC P. aeruginosa ATCC 9027); 2 µg/mL (≈ 5.35 µM) in assay [5] (Table 1, range 64 down to 0.12 μg/ml, read-out: MIC S. aureus ATCC 29213); 2 µg/mL (≈ 5.35 µM) in assay [5] (Table 2, broth dilution MIC in ug/ml, read-out: MIC S aureus ATCC 29213 MSSA). Further, the MIC in the assay on E. faecium CT-26 (CT26, Table 1, range 64 down to 0.12 μg/ml, read-out: MIC E. faecium CT-26) was 16 µg/mL (≈ 42.8 µM); in the assay with E. faecium CT-26 (CT26, Table 2, broth dilution MIC in ug/ml, read-out: MIC E faecium CT-25), 16 µg/mL (≈ 42.8 µM); in the assay with S. aureus BAA-39 (MDR) (Table 1, range 64 down to 0.12 μg/ml, read-out: MIC S. aureus BAA-39), 2 µg/mL (≈ 5.35 µM); with S. aureus BAA-39 (MDR) (Table 2, broth dilution MIC in ug/ml, read-out: MIC S aureus BAA-39 MDR), 2 µg/mL (≈ 5.35 µM); in the assay on K. pneumoniae ATCC 51503 (ATCC51503, Table 1, range 64 down to 0.12 μg/ml, read-out: MIC K. pneumoniae ATCC 51503) it was over 64 µg/mL; in the assay on K. pneumoniae ATCC 51503 (ATCC51503, Table 2, broth dilution MIC in ug/ml, read-out: MIC K pneumonia ATCC 51503) it was 64 µg/mL (≈ 171 µM). The MIC in assay [6] (Enterococcus faecium, Table 1, range 64 down to 0.12 μg/ml, read-out: MIC E. faecium ATCC 700221) amounted to 16 µg/mL (≈ 42.8 µM); in assay [6] (Table 2, broth dilution MIC in ug/ml, read-out: MIC E faecium ATCC 700221 VRE), 16 µg/mL (≈ 42.8 µM); against C. albicans ATCC 14053, 32 µg/mL (≈ 85.7 µM). Moreover, the “Zone Size M. smegmatis” value with M. smegmatis (mc2155) amounted to 30 mm. In addition, the “Zone Size MRSA” value in the assay on MRSA is 19 mm.

For the compound `Nc1ccc(-c2cc3ccc(C4=NCCN4)cc3[nH]2)cc1` [Compound 398657], the “Zone Size M. smegmatis” value in the assay with M. smegmatis (mc2155) was determined as 9.2 mm. The “Zone Size MRSA” value in the assay on MRSA is listed as 8.3 mm.

Consider `C[C@@H](O)[C@H]1C(=O)N2C(C(=O)O)=C(SCCN=CN)C[C@H]12` [IMP, reference compound], for which the “MIC K. pneumoniae ATCC 13883” value against K. pneumoniae ATCC 13883 (setting [7]) was 2 µg/mL (≈ 6.68 µM). Besides, the “MIC S. aureus ATCC 33591” value in assay [1] (Table 3, starting at 4 μg/ml) is over 4 µg/mL. Moreover, the “MIC MRSA S. aureus ATCC 33591” value in assay [1] (setting [7]) is over 4 µg/mL. Further, the “MIC S. pneumoniae ATCC 700674” value in [2] (Table 3, starting at 4 μg/ml) amounted to 0.06 µg/mL (≈ 0.2 µM). In assay [2] (setting [7]), the “MIC PRSP S. pneumoniae ATCC 700674” value worked out at 0.5 µg/mL (≈ 1.67 µM). The “MIC E. coli ECM 1694” value in the assay on E. coli ECM 1694 (Table 3, starting at 4 μg/ml) was determined as 0.5 µg/mL (≈ 1.67 µM); in the assay with E. coli ECM 1694 (setting [7]) it was 2 µg/mL (≈ 6.68 µM). For the same compound, the “MIC E. coli ATCC 25922” value against E. coli ATCC 25922 (setting [7]) amounted to 1 µg/mL (≈ 3.34 µM). Also, the “MIC E. faecalis ATCC 29212” value in assay [3] (Table 3, starting at 4 μg/ml) amounted to 1 µg/mL (≈ 3.34 µM). For the same compound, in [3] (setting [7]), the “MIC VRE E. faecalis ATCC 29212” value amounted to 4 µg/mL (≈ 13.4 µM). The “MIC S. pneumoniae ATCC 6301” value in assay [4] (Table 3, starting at 4 μg/ml) is given as “≦0.008 mcg/ml”. Besides, the “MIC PSSP S. pneumoniae ATCC 6301” value in assay [4] (setting [7]) was 0.015 µg/mL (≈ 0.0501 µM). The “MIC P. aeruginosa ATCC 9027” value against P. aeruginosa ATCC 9027 (setting [7]) came to 4 µg/mL (≈ 13.4 µM). For the same compound, the “MIC S. aureus ATCC 29213” value in [5] (Table 3, starting at 4 μg/ml) came out at 0.016 µg/mL (≈ 0.0534 µM). Also, the “MIC MSSA S. aureus ATCC 29213” value in assay [5] (setting [7]) was found to be 0.06 µg/mL (≈ 0.2 µM). The “MIC E. faecium CT-26” value in the assay on E. faecium CT-26 (Table 3, starting at 4 μg/ml) is over 4 µg/mL; in the assay with E. faecium CT-26 (setting [7]) it was over 4 µg/mL. Also, the “MIC S. aureus BAA-39” value against S. aureus BAA-39 (MDR) (Table 3, starting at 4 μg/ml) was found to be 1 µg/mL (≈ 3.34 µM). Besides, the “MIC MDR S. aureus BAA-39” value with S. aureus BAA-39 (MDR) (setting [7]) is 4 µg/mL (≈ 13.4 µM). Also, the “MIC K. pneumoniae ATCC 51503” value in the assay on K. pneumoniae ATCC 51503 (setting [7]) came to 2 µg/mL (≈ 6.68 µM). Moreover, the “MIC E. faecium ATCC 700221” value in [6] (Table 3, starting at 4 μg/ml) is over 4 µg/mL. Further, the “MIC VRE E. faecium ATCC 700221” value in assay [6] (setting [7]) was over 4 µg/mL.
